# Laboratory results from US8993752B2, “Neprilysin inhibitors” (Theravance Biopharma R&D IP, LLC, priority 2011, dated 2015).
# Target: T1, human NEP (Homo sapiens, UniProt P08473)
# T1 construct: purchased R&D Systems, Minneapolis, Minn; 1182-ZN
# Test: In vitro enzyme inhibition assay at human NEP (fluorogenic peptide substrate)
# Type: biochemical
# Details: recombinant human NEP; substrate Mca-D-Arg-Arg-Leu-Dap-(Dnp)-OH 10 μM; 37° C.; values given as ranges; read-out: pKi values at human NEP (converted)
# Experimental: The inhibitory activities of compounds at human and rat neprilysin (EC 3.4.24.11; NEP) and human angiotensin converting enzyme (ACE) were determined using in vitro assays as described below.
# Recombinant human NEP and recombinant human ACE were obtained commercially (R&D Systems, Minneapolis, Minn., catalog numbers 1182-ZN and 929-ZN, respectively). The fluorogenic peptide substrate Mca-D-Arg-Arg-Leu-Dap-(Dnp)-OH (Medeiros et al. (1997) Braz. J. Med. Biol. Res. 30:1157-62; Anaspec, San Jose, Calif.) and Abz-Phe-Arg-Lys(Dnp)-Pro-OH (Araujo et al. (2000) Biochemistry 39:8519-8525; Bachem, Torrance, Calif.) were used in the NEP and ACE assays respectively.
# The assays were performed in 384-well white opaque plates at 37° C. using the fluorogenic peptide substrates at a concentration of 10 μM in Assay Buffer (NEP: 50 mM HEPES, pH 7.5, 100 mM NaCl, 0.01% polyethylene glycol sorbitan monolaurate (Tween-20), 10 μM ZnSO4; ACE: 50 mM HEPES, pH 7.5, 100 mM NaCl, 0.01% Tween-20, 1 μM ZnSO4).
# Test compounds were assayed over the range of concentrations from 10 μM to 20 pM. Test compounds were added to the enzymes and incubated for 30 minute at 37° C. prior to initiating the reaction by the addition of substrate. Reactions were terminated after 20 minutes of incubation at 37° C. by the addition of glacial acetic acid to a final concentration of 3.6% (v/v).
# Plates were read on a fluorometer with excitation and emission wavelengths set to 320 nm and 405 nm, respectively Inhibition constants were obtained by nonlinear regression of the data using the equation (GraphPad Software, Inc., San Diego, Calif.): v=v0/[1+(I/K′)] where v is the reaction rate, v0 is the uninhibited reaction rate, I is the inhibitor concentration and K′ is the apparent inhibition constant.
# Compounds of the invention were tested in this assay and found to have pKi values at human NEP as follows.
# T1 sequence (P08473 whole entry): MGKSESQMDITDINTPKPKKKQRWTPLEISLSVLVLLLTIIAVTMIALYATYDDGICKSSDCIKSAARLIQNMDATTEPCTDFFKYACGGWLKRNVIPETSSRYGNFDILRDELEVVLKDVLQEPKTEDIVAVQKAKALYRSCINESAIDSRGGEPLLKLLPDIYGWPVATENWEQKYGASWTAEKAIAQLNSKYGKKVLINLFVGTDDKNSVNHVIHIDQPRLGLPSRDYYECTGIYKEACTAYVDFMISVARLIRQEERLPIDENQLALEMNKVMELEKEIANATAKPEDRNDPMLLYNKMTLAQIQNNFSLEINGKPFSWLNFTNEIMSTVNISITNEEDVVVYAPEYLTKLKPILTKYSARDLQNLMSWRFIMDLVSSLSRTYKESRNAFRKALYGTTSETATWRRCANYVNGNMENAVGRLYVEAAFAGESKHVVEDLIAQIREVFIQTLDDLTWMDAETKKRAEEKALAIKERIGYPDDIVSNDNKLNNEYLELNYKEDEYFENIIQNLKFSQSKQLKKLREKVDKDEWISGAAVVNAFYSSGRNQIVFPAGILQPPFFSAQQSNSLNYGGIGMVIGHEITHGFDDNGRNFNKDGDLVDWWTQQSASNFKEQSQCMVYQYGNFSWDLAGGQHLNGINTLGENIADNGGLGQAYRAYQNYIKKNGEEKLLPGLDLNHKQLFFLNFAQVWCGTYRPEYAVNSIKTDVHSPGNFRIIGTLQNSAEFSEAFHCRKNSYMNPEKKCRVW
row,Ki [nM],Compound
1,1.26 to 10,"O=C(N[C@H](Cc1ccccc1Cl)[C@@H](O)C(=O)O)c1cc(C(=O)O)n(Cc2ccc(Cl)cc2)n1 [Example 2-1, 5-[(1R,2R)-2-Carboxy-1-(2-chloro-benzyl)-2-hydroxy-ethylcarbamoyl]-2-(4-chloro-benzyl)-2H-pyrazole-3-carboxylic acid]"
2,1.26 to 10,"O=C(N[C@H](Cc1ccccc1Cl)[C@@H](O)C(=O)O)c1cc(C(=O)O)n(Cc2c(F)cc(Cl)cc2F)n1 [Example 2-2, 5-[(1R,2R)-2-Carboxy-1-(2-chloro-benzyl)-2-hydroxy-ethylcarbamoyl]-2-(4-chloro-2,6-difluoro-benzyl)-2H-pyrazole-3-carboxylic acid]"
3,12.6 to 100,"O=C(N[C@H](Cc1ccccc1Cl)[C@@H](O)C(=O)O)c1cc(C(=O)O)n(Cc2ccc(Cl)c(SC(F)(F)F)c2)n1 [Example 2-9, 5-[(1R,2R)-2-Carboxy-1-(2-chloro-benzyl)-2-hydroxy-ethylcarbamoyl]-2-(4-chloro-3-trifluoromethylsulfanyl-benzyl)-2H-pyrazole-3-carboxylic acid]"
4,1.26 to 10,"O=C(N[C@H](Cc1ccccc1Cl)[C@@H](O)C(=O)O)c1cc(C(=O)O)n(Cc2cccc(Cl)c2)n1 [Example 2-10, 5-[(1R,2R)-2-Carboxy-1-(2-chloro-benzyl)-2-hydroxy-ethylcarbamoyl]-2-(3-chloro-benzyl)-2H-pyrazole-3-carboxylic acid]"
5,1.26 to 10,"COc1cccc(Cn2nc(C(=O)N[C@H](Cc3ccccc3Cl)[C@@H](O)C(=O)O)cc2C(=O)O)c1 [Example 2-11, 5-[(1R,2R)-2-Carboxy-1-(2-chloro-benzyl)-2-hydroxy-ethylcarbamoyl]-2-(3-methoxy-benzyl)-2H-pyrazole-3-carboxylic acid]"
6,12.6 to 100,"O=C(N[C@H](Cc1ccccc1Cl)[C@@H](O)C(=O)O)c1cc(C(=O)O)n(Cc2ccc(Cl)cc2C(F)(F)F)n1 [Example 2-12, 5-[(1R,2R)-2-Carboxy-1-(2-chloro-benzyl)-2-hydroxy-ethylcarbamoyl]-2-(4-chloro-2-trifluoromethyl-benzyl)-2H-pyrazole-3-carboxylic acid]"
7,12.6 to 100,"O=C(N[C@H](Cc1ccccc1Cl)[C@@H](O)C(=O)O)c1cc(C(=O)O)n(Cc2ccc(Cl)c(OC(F)(F)F)c2)n1 [Example 2-13, 5-[(1R,2R)-2-Carboxy-1-(2-chloro-benzyl)-2-hydroxy-ethylcarbamoyl]-2-(4-chloro-3-trifluoromethoxy-benzyl)-2H-pyrazole-3-carboxylic acid]"
8,1.26 to 10,"O=C(N[C@H](Cc1ccccc1Cl)[C@@H](O)C(=O)O)c1cc(C(=O)O)n(Cc2c(F)ccc(Cl)c2F)n1 [Example 2-14, 5-[(1R,2R)-2-Carboxy-1-(2-chloro-benzyl)-2-hydroxy-ethylcarbamoyl]-2-(3-chloro-2,6-difluoro-benzyl)-2H-pyrazole-3-carboxylic acid]"
9,1.26 to 10,"O=C(N[C@H](Cc1ccccc1Cl)[C@@H](O)C(=O)O)c1cc(C(=O)O)n(Cc2cc(F)ccc2Cl)n1 [Example 2-15, 5-[(1R,2R)-2-Carboxy-1-(2-chloro-benzyl)-2-hydroxy-ethylcarbamoyl]-2-(2-chloro-5-fluoro-benzyl)-2H-pyrazole-3-carboxylic acid]"
10,1.26 to 10,"O=C(N[C@H](Cc1ccccc1Cl)[C@@H](O)C(=O)O)c1cc(C(=O)O)n(Cc2cc(F)cc(Cl)c2)n1 [Example 2-16, 5-[(1R,2R)-2-Carboxy-1-(2-chloro-benzyl)-2-hydroxy-ethylcarbamoyl]-2-(3-chloro-5-fluoro-benzyl)-2H-pyrazole-3-carboxylic acid]"
11,1.26 to 10,"COc1c(F)cc(Cn2nc(C(=O)N[C@H](Cc3ccccc3Cl)[C@@H](O)C(=O)O)cc2C(=O)O)cc1Cl [Example 2-17, 5-[(1R,2R)-2-Carboxy-1-(2-chloro-benzyl)-2-hydroxy-ethylcarbamoyl]-2-(3-chloro-5-fluoro-4-methoxy-benzyl)-2H-pyrazole-3-carboxylic acid]"
12,12.6 to 100,"O=C(N[C@H](Cc1ccccc1Cl)[C@@H](O)C(=O)O)c1cc(C(=O)O)n(Cc2ccc(Cl)c(C(F)(F)F)c2)n1 [Example 2-18, 5-[(1R,2R)-2-Carboxy-1-(2-chloro-benzyl)-2-hydroxy-ethylcarbamoyl]-2-(4-chloro-3-trifluoromethyl-benzyl)-2H-pyrazole-3-carboxylic acid]"
13,1.26 to 10,"O=C(N[C@H](Cc1ccccc1Cl)[C@@H](O)C(=O)O)c1cc(C(=O)O)n(Cc2ccccc2Cl)n1 [Example 2-19, 5-[(1R,2R)-2-Carboxy-1-(2-chloro-benzyl)-2-hydroxy-ethylcarbamoyl]-2-(2-chloro-benzyl)-2H-pyrazole-3-carboxylic acid]"
14,1.26 to 10,"O=C(N[C@H](Cc1ccccc1Cl)[C@@H](O)C(=O)O)c1cc(C(=O)O)n(Cc2ccc(F)cc2)n1 [Example 2-20, 5-[(1R,2R)-2-Carboxy-1-(2-chloro-benzyl)-2-hydroxy-ethylcarbamoyl]-2-(4-fluoro-benzyl)-2H-pyrazole-3-carboxylic acid]"
15,≤ 1,"COc1ccc(Cn2nc(C(=O)N[C@H](Cc3ccccc3Cl)[C@@H](O)C(=O)O)cc2C(=O)O)cc1 [Example 2-21, 5-[(1R,2R)-2-Carboxy-1-(2-chloro-benzyl)-2-hydroxy-ethylcarbamoyl]-2-(4-methoxy-benzyl)-2H-pyrazole-3-carboxylic acid]"
16,1.26 to 10,"O=C(N[C@H](Cc1ccccc1Cl)[C@@H](O)C(=O)O)c1cc(C(=O)O)n(Cc2ccc(C(F)(F)F)cc2)n1 [Example 2-25, 5-[(1R,2R)-2-Carboxy-1-(2-chloro-benzyl)-2-hydroxy-ethylcarbamoyl]-2-(4-trifluoromethyl-benzyl)-2H-pyrazole-3-carboxylic acid]"
17,≤ 1,"O=C(N[C@H](Cc1ccccc1Cl)[C@@H](O)C(=O)O)c1cc(C(=O)O)n(Cc2ccc(OC(F)F)cc2)n1 [Example 2-26, 5-[(1R,2R)-2-Carboxy-1-(2-chloro-benzyl)-2-hydroxy-ethylcarbamoyl]-2-(4-difluoromethoxy-benzyl)-2H-pyrazole-3-carboxylic acid]"
18,≤ 1,"COc1ccc(Cn2nc(C(=O)N[C@H](Cc3ccccc3Cl)[C@@H](O)C(=O)O)cc2C(=O)O)c(F)c1F [Example 2-27, 5-[(1R,2R)-2-Carboxy-1-(2-chloro-benzyl)-2-hydroxy-ethylcarbamoyl]-2-(2,3-difluoro-4-methoxy-benzyl)-2H-pyrazole-3-carboxylic acid]"
19,≤ 1,"COc1cc(F)c(Cn2nc(C(=O)N[C@H](Cc3ccccc3Cl)[C@@H](O)C(=O)O)cc2C(=O)O)c(F)c1 [Example 2-32, 5-[(1R,2R)-2-Carboxy-1-(2-chloro-benzyl)-2-hydroxy-ethylcarbamoyl]-2-(2,6-difluoro-4-methoxy-benzyl)-2H-pyrazole-3-carboxylic acid]"
20,≤ 1,"O=C(N[C@H](Cc1ccccc1Cl)[C@@H](O)C(=O)O)c1cc(C(=O)O)n(Cc2ccc(OC(F)(F)F)cc2)n1 [Example 2-33, 5-[(1R,2R)-2-Carboxy-1-(2-chloro-benzyl)-2-hydroxy-ethylcarbamoyl]-2-(4-trifluoromethoxy-benzyl)-2H-pyrazole-3-carboxylic acid]"
21,≤ 1,"COc1c(F)cc(Cn2nc(C(=O)N[C@H](Cc3ccccc3Cl)[C@@H](O)C(=O)O)cc2C(=O)O)cc1F [Example 2-34, 5-[(1R,2R)-2-Carboxy-1-(2-chloro-benzyl)-2-hydroxy-ethylcarbamoyl]-2-(3,5-difluoro-4-methoxy-benzyl)-2H-pyrazole-3-carboxylic acid]"
22,≤ 1,"COc1c(F)c(F)c(Cn2nc(C(=O)N[C@H](Cc3ccccc3Cl)[C@@H](O)C(=O)O)cc2C(=O)O)c(F)c1F [Example 2-35, 5-[(1R,2R)-2-Carboxy-1-(2-chloro-benzyl)-2-hydroxy-ethylcarbamoyl]-2-(2,3,5,6-tetrafluoro-4-methoxy-benzyl)-2H-pyrazole-3-carboxylic acid]"
23,1.26 to 10,"COc1ccc(Cn2nc(C(=O)N[C@H](Cc3ccccc3Cl)[C@@H](O)C(=O)O)cc2C(=O)O)cc1F [Example 2-37, 5-[(1R,2R)-2-Carboxy-1-(2-chloro-benzyl)-2-hydroxy-ethylcarbamoyl]-2-(3-fluoro-4-methoxy-benzyl)-2H-pyrazole-3-carboxylic acid]"
24,≤ 1,"O=C(N[C@H](Cc1ccccc1Cl)[C@@H](O)C(=O)O)c1cc(C(=O)O)n(Cc2ccc(OC(F)(F)F)c(F)c2)n1 [Example 2-39, 5-[(1R,2R)-2-Carboxy-1-(2-chloro-benzyl)-2-hydroxy-ethylcarbamoyl]-2-(3-fluoro-4-trifluoromethoxy-benzyl)-2H-pyrazole-3-carboxylic acid]"
25,1.26 to 10,"Cc1ccc(Cn2nc(C(=O)N[C@H](Cc3ccccc3Cl)[C@@H](O)C(=O)O)cc2C(=O)O)cc1 [Example 2-40, 5-[(1R,2R)-2-Carboxy-1-(2-chloro-benzyl)-2-hydroxy-ethylcarbamoyl]-2-(4-methyl-benzyl)-2H-pyrazole-3-carboxylic acid]"
